# Measured values: patent US20250250299A1, “MACROCYCLIC IMMUNOMODULATORS” (Bristol-Myers Squibb Company, priority 2022, published 2025)
# Where a SMILES comes first, the peptide text is derived from it. Bridges are numbered along the chain shown (N, C = ends). [ ]: non-standard residue; d: D form. The star is where a group is joined. X1 = O=C(O)CCCCCCCCCCCCCCCCC(=O)N[C@@H](CCC(=O)NCCOCCOCCOCCOCCOCCOCCOCCOCCOCCOCCOCCn1cc(C*)nn1)C(=O)O; Phe(4-CH2NH2) = NCc1ccc(C[C@H](N)C(=O)O)cc1; Bip = N[C@@H](Cc1ccc(-c2ccccc2)cc1)C(=O)O; Phe(3-Me) = Cc1cccc(C[C@H](N)C(=O)O)c1; C12 diacid = O=C(O)CCCCCCCCCCC(=O)*; 4Pal = N[C@@H](Cc1ccncc1)C(=O)O; Cha = N[C@@H](CC1CCCCC1)C(=O)O; Carboxymethyl = O=C(O)C*; NMeA = CN[C@@H](C)C(=O)O; Orn = NCCC[C@H](N)C(=O)O; Dab = NCC[C@H](N)C(=O)O
# Biological target: T1, human PD-1 (Jurkat-PD-1 cells; binding of PE-labeled human PD-L1-Ig) (Homo sapiens, UniProt Q15116)
# T1 construct: expressed in transfected cells; host or cells: Jurkat (Jurkat-PD-1 / Jurkat-hPD-1)
# T1 sequence (Q15116 25-288): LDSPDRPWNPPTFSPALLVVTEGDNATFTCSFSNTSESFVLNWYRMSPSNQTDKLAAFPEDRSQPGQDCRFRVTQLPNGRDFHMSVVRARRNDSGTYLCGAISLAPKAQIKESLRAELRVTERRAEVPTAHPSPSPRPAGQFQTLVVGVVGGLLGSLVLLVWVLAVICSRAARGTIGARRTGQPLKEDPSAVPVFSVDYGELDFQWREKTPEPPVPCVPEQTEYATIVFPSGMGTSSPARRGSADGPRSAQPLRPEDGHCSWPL
# Assay: Jurkat-PD-1 Cell Binding High-Content Screening Assay
# Conditions: Jurkat cell line over-expressing human PD-1; compound 2 h at 37° C., then PE-labeled PD-L1-Ig 20 nM final, 1 hour; read-out: Jurkat hPD1 PDL1 IC50
row,SMILES,IC50
1,Cc1cccc(C[C@@H]2NC(=O)[C@H](CC(=O)O)NC(=O)[C@H](Cc3ccc(OCC(=O)O)cc3)NC(=O)[C@H](Cc3c[nH]cn3)NC(=O)CSC[C@@H](C(=O)N[C@@H](CCN)C(N)=O)NC(=O)[C@H](CCC(=O)O)NC(=O)[C@H](C(C)C)NC(=O)[C@H](CC3CCCCC3)NC(=O)[C@H](CCN)NC(=O)[C@@H](CC(C)C)NC(=O)[C@H](CCCN)NC(=O)[C@H](Cc3ccc(OCC(=O)O)cc3)NC(=O)[C@H](Cc3ccc(-c4ccccc4)cc3)NC(=O)[C@H](Cc3ccc(OCc4cn(CCOCCOCCOCCOCCOCCOCCOCCOCCOCCOCCOCCNC(=O)CC[C@H](NC(=O)CCCCCCCCCCCCCCCCC(=O)O)C(=O)O)nn4)cc3)NC2=O)c1 [Compound 1006] ({CH2CO}-HY(Carboxymethyl)D[Phe(3-Me)]Y(X1)[Bip]Y(Carboxymethyl)[Orn][dL][Dab][Cha]VEC[Dab]-NH2; thioether N-14),55 nM
2,Cc1cccc(C[C@@H]2NC(=O)[C@H](CC(=O)O)NC(=O)[C@H](Cc3ccc(OCC(=O)O)cc3)NC(=O)[C@H](CCCNC(=N)N)NC(=O)CSC[C@@H](C(=O)N[C@@H](CCN)C(N)=O)NC(=O)[C@H](CCC(=O)O)NC(=O)[C@H](C(C)C)NC(=O)[C@H](CC3CCCCC3)NC(=O)[C@H](CCN)NC(=O)[C@@H](CC(C)C)NC(=O)[C@H](CCCN)NC(=O)[C@H](Cc3ccc(OCC(=O)O)cc3)NC(=O)[C@H](Cc3ccc(-c4ccccc4)cc3)NC(=O)[C@H](Cc3ccc(OCc4cn(CCOCCOCCOCCOCCOCCOCCOCCOCCOCCOCCOCCNC(=O)CC[C@H](NC(=O)CCCCCCCCCCCCCCCCC(=O)O)C(=O)O)nn4)cc3)NC2=O)c1 [Compound 1005] ({CH2CO}-RY(Carboxymethyl)D[Phe(3-Me)]Y(X1)[Bip]Y(Carboxymethyl)[Orn][dL][Dab][Cha]VEC[Dab]-NH2; thioether N-14),39 nM
3,Cc1cccc(C[C@@H]2NC(=O)[C@H](CC(=O)O)NC(=O)[C@H](Cc3ccc(OCc4cn(CCOCCOCCOCCOCCOCCOCCOCCOCCOCCOCCOCCNC(=O)CC[C@H](NC(=O)CCCCCCCCCCCCCCCCC(=O)O)C(=O)O)nn4)cc3)NC(=O)[C@H](CCN)NC(=O)CSC[C@@H](C(=O)N[C@@H](CCN)C(N)=O)NC(=O)[C@H](CCC(=O)O)NC(=O)[C@H](C(C)C)NC(=O)[C@H](CC3CCCCC3)NC(=O)[C@H](CCN)NC(=O)[C@@H](CC(C)C)NC(=O)[C@H](CCCN)NC(=O)[C@H](Cc3ccc(OCC(=O)O)cc3)NC(=O)[C@H](Cc3ccc(-c4ccccc4)cc3)NC(=O)[C@H](Cc3ccc(OCC(=O)O)cc3)NC2=O)c1 [Compound 1007] ({CH2CO}-[Dab]Y(X1)D[Phe(3-Me)]Y(Carboxymethyl)[Bip]Y(Carboxymethyl)[Orn][dL][Dab][Cha]VEC[Dab]-NH2; thioether N-14),510 nM
4,CC(C)C[C@H]1NC(=O)[C@H](C)N(C)C(=O)[C@H](C(C)C)NC(=O)[C@H](Cc2ccc(-c3ccccc3)cc2)NC(=O)[C@H](C(C)C)NC(=O)[C@H](Cc2c[nH]c3ccccc23)NC(=O)[C@H](CC(=O)O)NC(=O)[C@H](Cc2ccncc2)NC(=O)[C@H](Cc2ccc(CNC(=O)CCCCCCCCCCC(=O)O)cc2)NC(=O)CSC[C@@H](C(N)=O)NC(=O)[C@H](CO)NC(=O)[C@H](C(C)C)NC(=O)[C@H](CC2CCCCC2)NC(=O)[C@H](CC(N)=O)NC1=O [Compound 1037] ({CH2CO}-[Phe(4-CH2NH2)](C12 diacid)[4Pal]DWV[Bip]V[NMeA][dL]N[Cha]VSC-NH2; thioether N-14),120 nM
5,Cc1cccc(C[C@@H]2NC(=O)[C@H](CC(=O)O)NC(=O)[C@H](Cc3ccc(OCC(=O)O)cc3)NC(=O)[C@H](CCCNC(=N)N)NC(=O)CSC[C@@H](C(=O)N[C@@H](CCN)C(N)=O)NC(=O)[C@H](Cc3ccc(OCc4cn(CCOCCOCCOCCOCCOCCOCCOCCOCCOCCOCCOCCNC(=O)CC[C@H](NC(=O)CCCCCCCCCCCCCCCCC(=O)O)C(=O)O)nn4)cc3)NC(=O)[C@H](C(C)C)NC(=O)[C@H](CC3CCCCC3)NC(=O)[C@H](CCN)NC(=O)[C@@H](CC(C)C)NC(=O)[C@H](CCCN)NC(=O)[C@H](Cc3ccc(OCC(=O)O)cc3)NC(=O)[C@H](Cc3ccc(-c4ccccc4)cc3)NC(=O)[C@H](Cc3ccc(OCC(=O)O)cc3)NC2=O)c1 [Compound 1014] ({CH2CO}-RY(Carboxymethyl)D[Phe(3-Me)]Y(Carboxymethyl)[Bip]Y(Carboxymethyl)[Orn][dL][Dab][Cha]VY(X1)C[Dab]-NH2; thioether N-14),73 nM
6,CC(C)C[C@H]1NC(=O)[C@H](C)N(C)C(=O)[C@H](C(C)C)NC(=O)[C@H](Cc2ccc(-c3ccccc3)cc2)NC(=O)[C@H](C(C)C)NC(=O)[C@H](Cc2c[nH]c3ccccc23)NC(=O)[C@H](CC(=O)O)NC(=O)[C@H](Cc2ccncc2)NC(=O)[C@H](Cc2ccc(OCC(=O)O)cc2)NC(=O)CSC[C@@H](C(N)=O)NC(=O)[C@H](CO)NC(=O)[C@H](C(C)C)NC(=O)[C@H](CC2CCCCC2)NC(=O)[C@H](CCCCNC(=O)CCCCCCCCCCC(=O)O)NC1=O [Compound 1044] ({CH2CO}-Y(Carboxymethyl)[4Pal]DWV[Bip]V[NMeA][dL]K(C12 diacid)[Cha]VSC-NH2; thioether N-14),360 nM
7,Cc1cccc(C[C@@H]2NC(=O)[C@H](CC(=O)O)NC(=O)[C@H](Cc3ccc(OCc4cn(CCOCCOCCOCCOCCOCCOCCOCCOCCOCCOCCOCCNC(=O)CC[C@H](NC(=O)CCCCCCCCCCCCCCCCC(=O)O)C(=O)O)nn4)cc3)NC(=O)[C@H](Cc3c[nH]cn3)NC(=O)CSC[C@@H](C(=O)N[C@@H](CCN)C(N)=O)NC(=O)[C@H](CCC(=O)O)NC(=O)[C@H](C(C)C)NC(=O)[C@H](CC3CCCCC3)NC(=O)[C@H](CCN)NC(=O)[C@@H](CC(C)C)NC(=O)[C@H](CCCN)NC(=O)[C@H](Cc3ccc(OCC(=O)O)cc3)NC(=O)[C@H](Cc3ccc(-c4ccccc4)cc3)NC(=O)[C@H](Cc3ccc(OCC(=O)O)cc3)NC2=O)c1 [Compound 1010] ({CH2CO}-HY(X1)D[Phe(3-Me)]Y(Carboxymethyl)[Bip]Y(Carboxymethyl)[Orn][dL][Dab][Cha]VEC[Dab]-NH2; thioether N-14),630 nM
8,Cc1cccc(C[C@@H]2NC(=O)[C@H](CC(=O)O)NC(=O)[C@H](Cc3ccc(OCC(=O)O)cc3)NC(=O)[C@H](CCN)NC(=O)CSC[C@@H](C(=O)N[C@@H](CCN)C(N)=O)NC(=O)[C@H](Cc3ccc(OCc4cn(CCOCCOCCOCCOCCOCCOCCOCCOCCOCCOCCOCCNC(=O)CC[C@H](NC(=O)CCCCCCCCCCCCCCCCC(=O)O)C(=O)O)nn4)cc3)NC(=O)[C@H](C(C)C)NC(=O)[C@H](CC3CCCCC3)NC(=O)[C@H](CCN)NC(=O)[C@@H](CC(C)C)NC(=O)[C@H](CCCN)NC(=O)[C@H](Cc3ccc(OCC(=O)O)cc3)NC(=O)[C@H](Cc3ccc(-c4ccccc4)cc3)NC(=O)[C@H](Cc3ccc(OCC(=O)O)cc3)NC2=O)c1 [Compound 1012] ({CH2CO}-[Dab]Y(Carboxymethyl)D[Phe(3-Me)]Y(Carboxymethyl)[Bip]Y(Carboxymethyl)[Orn][dL][Dab][Cha]VY(X1)C[Dab]-NH2; thioether N-14),380 nM
